Experimental data from patent US20240140953A1, “INHIBITORS OF MENIN-MLL INTERACTION” (BIOMEA FUSION, INC., priority 2018, published 2024).
Like-named read-outs stand apart in the source and are kept apart here.

Legend:
[1] = tested on: MV4-11 (MLL-AF4); experiment: LTP assay, CellTiterGlo, T4-T14 (Example 103), MV4-11; assay type: cell-based, human; conditions: for IC50: Homo sapiens
Protocol: (§1) The day of the experiment (T0) all the cell line suspensions were counted by Cell Viability Analyser, Vi-CELL and properly diluted with fresh medium to obtain the cell density reported in the Test System paragraph.
(§2) Cells were tested after 4 passages after thawing.
(§3) 200 μL/well and 150 μL/well of cell suspension were added into the 0.4 μL/well and 0.3 μL/well compound plates, respectively. • Cell plate containing 200 μL/well suspension was incubated at 37° C. in a humidified incubator with 5% CO2. • From each well of the 150 μL/well cell assay plate, 100 μL were harvested and transferred into a 96-well Optiplate (Perkin Elmer, Cat. n. 6005290) and cell viability was measured as described in 4.3 paragraphs (T0).
(§4) After four days in culture (T4) 150 μL/well of fresh medium were added into a new 0.3 μL/well copy compound plate. • From each well of the 200 μL/well cell assay plate: • 100 μL were sampled for the cell viability measurement as described in 4.3 paragraphs (T4). • 50 μL were harvested and added to the 150 μL/well compound plate prepared as described in the first point to dilute 1:4 the cell suspension. • The cell assay plate diluted and containing 200 μL/well suspension were incubated at 37° C. in a humidified incubator with 5% Co2.
(§5) At T7-T11-T14 it was proceeded as described in T4, with the exception that no further cell dilution was carried out at T14.
(§6) Plates containing the samples to be tested were equilibrated at room temperature for approximately 30 min and then 30 μL/well of the Promega CellTiterGlo® reagent were added.
(§7) Contents will be mixed for 5 min on an orbital shaker to induce cell lysis and then incubated at room temperature for an additional 10 min to stabilize the luminescent signal.
(§8) Luminescence was read by using VictorV (Perkin Elmer) multilabel plate reader using the standard protocol for luminescence in 96 well plate.
(§9) Data were expressed as % of inhibition compared to the 0.2% DMSO negative control, and was calculated as follows: […]
(§10) CRCs were analysed by GraphPad and IC50 values were calculated by non-linear regression using 4 parameter-logistic equation. IC50 (μM) values were reported in the final data table.
(§11) The curve fittings were performed leaving free all the parameters. Any constrain were reported in the results table.

[2] = tested on: MOLM-13 (MLL-AF9); experiment: LTP assay, CellTiterGlo, T4-T14 (Example 103), MOLM-13; assay type: cell-based, human; conditions: for IC50: Homo sapiens
Protocol: as §1, §2, §3, §4, §5, §6, §7, §8, §9, §10, §11

[3] = tested on: RS4-11 (MLL-AF4); experiment: LTP assay, CellTiterGlo, T4-T14 (Example 103), RS4-11; assay type: cell-based; conditions: for IC50: Homo sapiens
Protocol: as §1, §2, §3, §4, §5, §6, §7, §8, §9, §10, §11

[4] = tested on: HL-60; experiment: LTP assay, CellTiterGlo, T4-T14 (Example 103), HL-60; assay type: cell-based; conditions: for IC50: Homo sapiens
Protocol: as §1, §2, §3, §4, §5, §6, §7, §8, §9, §10, §11

[5] = tested on: MOLM-13 (MLL-AF9); experiment: Proliferation study, CellTiterGlo, 4 days (Example 102), MOLM-13; assay type: cell-based, human; conditions: MOLM-13, 4 days treatment
Description: (§12) The objective of the study was to evaluate the ability of representative compounds of the present invention, inhibitors of Menin/MLL interaction to inhibit cell proliferation. The proliferation inhibitory effect was investigated in two human MLL-leukemia cells selected on the bases of MLL fusion protein and listed in Table 102. HL-60 cell line was used as negative control.
(§13) ATP is present in all metabolically active cells and is considered as a marker for cell viability and proliferation. The metabolic cell activity was determined using the CellTiter-Glo kit from Promega, an ATP monitoring system based on the production of luminescence by the reaction of ATP with added UltraGlo® recombinant luciferase (Kawano et al., 2016), according to the supplier's experimental recommendations.
(§14) The described assay evaluates the ability of 4 representative compounds to inhibit the cell proliferation in the human MLL-leukemia cells plus a negative control cell line.
(§15) The assay provides potency values (IC50) for each test compound at a single time point Day 4 (T4).
(§16) Seven concentrations of the compounds (2.00E-05-6.67E-06-2.22E-06-7.41E-07-2.47E-07-8.23E-08-2.74E-08M), were assessed in duplicate in an individual test occasion in all the cell lines. MI-503 (Borkin et al., 2015) was used as reference compound and was tested at the same concentrations as the NCEs. 100% of proliferation is represented by the untreated cells (0.2% DMSO). The cell growth was monitored up to 4 days in culture.
(§17) MV4-11, MOLM-13 and HL-60 cells (see Table 2) were maintained in RPMI-1640 medium (Invitrogen, Cat. n. 618700, Batch n. 1965930) supplemented with 10% of Heat Inactivated FBS (Invitrogen, Cat n. 10500, Batch n. 08Q8078K) and 1% Pen-Strep (Invitrogen, Cat. N. 15140, Batch n. 1910859) and cultured at 37° C. in a humidified incubator with 5% CO2. All the cell lines grow in suspension and the cell density was maintained in a range of 2×10^5-1×10^6 viable cells/ml. Cells were pelleted at 130 g×5 min and conditioned medium was used to dilute the cell suspension.
(§18) Test items were dissolved in glass vials at 10 mM in DMSO with purity ≥99.9% (Sigma, D8418, batch n. SHBH4245V) and stored at −20° C. in 1.5 mL Eppendorf tubes.
(§19) Serial dilutions 1 to 3 in DMSO 100% were prepared starting from a 10 mM stock solutions to generate 7 points concentration response curve (CRC).
(§20) For each plate to test, one 0.4 μL copy plate and four 0.3 μL copy plates were then stamped into 96-well plates not treated for cell adhesion (Sarstedt—cat.no. 82.1581.001) by acoustic liquid Handling, Echo, at a concentration which was 500 fold the final assay concentration. Stamped plates were stored at −20° C. The final concentrations for the reference compound, MI-503, and the test items were: 2.00E-05, 6.67E-06, 2.22E-06, 7.41E-07, 2.47E-07, 8.23E-08 and 2.74E-08 M.
(§21) Cells were plated in 96-well flat bottom microtiter plates at cell density of 15,000 cells/ml for HL-60, 1000 cells/ml for MOLM-13 and 10,000 cell/ml for MV4-11. Cells were treated with 0.2% DMSO (Sigma, D8418, batch n. SHBH4245V) or serial dilutions of compounds (0.027 μM-20 μM) in DMSO (0.2% final concentration). Cells were incubated in a 5% CO2 incubator at 37° C. for 4 days. A CellTiterGlo viability assay (Promega) was employed. Luminescence was read by using VictorV (Perkin Elmer) multilabel plate reader using the standard protocol for luminescence in 96 well plate. The experiment was performed in duplicate.
as §9
(§22) CRCs were analysed by GraphPad and IC50 values were calculated by non-linear regression using 4 parameter-logistic equation. IC50 (μM) values were reported in the final data table. The curve fittings were performed leaving free all the parameters. Any constrain were reported in the results table.

[6] = tested on: HL-60; experiment: Proliferation study, CellTiterGlo, 4 days (Example 102), HL-60; assay type: cell-based; conditions: HL-60, 4 days treatment
Description: as §12, §13, §14, §15, §16, §17, §18, §19, §20, §21, §9, §22

[7] = tested on: MV4-11 (MLL-AF4); experiment: Proliferation study, CellTiterGlo, 4 days (Example 102), MV4-11; assay type: cell-based, human; conditions: MV4-11, 4 days treatment
Description: as §12, §13, §14, §15, §16, §17, §18, §19, §20, §21, §9, §22

[8] = MV4-11, 96 h, MV4-11 (MLL-AF4), T4 (Day 4), read-out: IC50 T4 (Day 4)
[9] = MV4-11, MV4-11 (MLL-AF4), T7, read-out: IC50 T7
[10] = MV4-11, MV4-11 (MLL-AF4), T11, read-out: IC50 T11
[11] = MV4-11, MV4-11 (MLL-AF4), T14, read-out: IC50 T14
[12] = MOLM-13, 96 h, MOLM-13 (MLL-AF9), T4 (Day 4), read-out: IC50 T4 (Day 4)
[13] = MOLM-13, MOLM-13 (MLL-AF9), T7, read-out: IC50 T7
[14] = MOLM-13, MOLM-13 (MLL-AF9), T11, read-out: IC50 T11
[15] = MOLM-13, MOLM-13 (MLL-AF9), T14, read-out: IC50 T14
[16] = RS4-11, 96 h, RS4-11 (MLL-AF4), T4 (Day 4), read-out: IC50 T4 (Day 4)
[17] = RS4-11, RS4-11 (MLL-AF4), T7, read-out: IC50 T7
[18] = RS4-11, RS4-11 (MLL-AF4), T11, read-out: IC50 T11
[19] = HL-60, 96 h, HL-60, T4 (Day 4), read-out: IC50 T4 (Day 4)
[20] = HL-60, HL-60, T7, read-out: IC50 T7
[21] = HL-60, HL-60, T11, read-out: IC50 T11
[22] = HL-60, HL-60, T14, read-out: IC50 T14

IC50 [1, 8]	IC50 [1, 9]	IC50 [1, 10]	IC50 [1, 11]	IC50 [2, 12]	IC50 [2, 13]	IC50 [2, 14]	IC50 [2, 15]	IC50 [3, 16]	IC50 [3, 17]	IC50 [3, 18]	IC50 [4, 19]	IC50 [4, 20]	IC50 [4, 21]	IC50 [4, 22]	Compound	other results
> 5 µM	4.91 µM	3.09 µM	2.69 µM	> 5 µM	> 5 µM	> 5 µM	> 5 µM	> 5 µM	2.75 µM	> 5 µM	> 5 µM	> 5 µM	> 5 µM	> 5 µM	Cc1ccc(-c2cc(CC(=O)Nc3ccc(-c4nc5c(N6CCOCC6)nccc5[nH]4)cc3)[nH]n2)cn1 [Compound 32]	
> 5 µM	> 5 µM	3.31 µM	2.34 µM	> 5 µM	> 5 µM	> 5 µM	> 5 µM	> 5 µM	> 5 µM	> 5 µM	> 5 µM	> 5 µM	> 5 µM	> 5 µM	Cc1nccc2[nH]c(-c3ccc(NC(=O)Cc4cc(-c5cccnc5)n[nH]4)cc3)nc12 [Compound 33]	
															Cc1c(CN2CCC(Nc3ncnc4sc(CC(F)(F)F)cc34)CC2)ccc2c1cc(C#N)n2Cc1cn[nH]c1 [MI-503, reference compound]	MOLM-13 (MLL-AF9) pIC50 ([5]; CellTiterGlo): 6.63; IC50 ([5]; CellTiterGlo, read-out: MOLM-13 (MLL-AF9) IC50): 0.23 µM; MOLM-13 (MLL-AF9) % max ([5]; maximal inhibition): 98%; inhibition of cell viability (in words) ([1]; MV4-11, LTP assay): fully inhibited cell viability; HL-60 pIC50 ([6]; CellTiterGlo): 6.38; IC50 ([6]; CellTiterGlo, read-out: HL-60 IC50): 0.42 µM; HL-60 % max ([6]; maximal inhibition): 103%; MV4-11 (MLL-AF4) pIC50 ([7]; CellTiterGlo): 6.73; IC50 ([7]; CellTiterGlo, read-out: MV4-11 (MLL-AF4) IC50): 0.19 µM; MV4-11 (MLL-AF4) % max ([7]; maximal inhibition): 100%; inhibition of cell viability (in words) ([2]; MOLM-13, LTP assay): fully inhibited cell viability; inhibition of cell viability (in words) ([3]; RS4;11, LTP assay): fully inhibited cell viability; inhibition of cell viability (in words) ([4]; HL-60, LTP assay): fully inhibited cell viability
